In US20060063784A1, “Method of using substituted pyrazolo [1,5-a] pyrimidines” (priority 2004, published 2006):
Read-outs that look alike come from different tables or passages of the source.

Tested on: 80S14 (p21-deficient) cells
Test: Cytotoxicity assay using isogenic cell lines: IC50 in 80S14 (p21-deficient) cells, SRB
Format: cell-based, human
Outline: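 80S14 (p21-deficient) cells seeded at 12,000 cells/well overnight, then exposed 5 days at 37 °C to serial dilutions (5 pM–50 μM or 170 pg/ml–10 μg/ml). TCA-fixed, sulforhodamine B-stained, absorbance at 560 nm; IC50 taken from cytotoxicity curves versus untreated controls.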

[1] = Homo sapiens, 120 h, 80S14 p21-deficient cells, 5 days incubation, SRB, read-out: IC50 for 80SI4
[2] = Homo sapiens, 120 h, 80S14 (p21-deficient) cells, 5 days, SRB, class symbols, read-out: IC50 for 80S14
[3] = Homo sapiens, 80S14, 120 h, read-out: IC50 for 80S14 (uM)
[4] = 80S14 (p21-deficient) cells, 5 days, SRB, class symbols, read-out: IC50 for 80S14

| SMILES | IC50 [2] [µM] | other results |
| --- | --- | --- |
| Cc1cnc2c(C(=O)c3cccs3)cnn2c1-c1cccc(NC(=O)Cc2cccs2)c1 [Example 219, N-{3-[6-methyl-3-(thien-2-ylcarbonyl)pyrazolo[1,5-a]pyrimidin-7-yl]phenyl}-2-thien-2-ylacetamide] | – | IC50 [1]: 10 to 50 µM |
| Cc1cnc2c(C(=O)c3cccs3)cnn2c1-c1cccc(NC(=O)c2cccnc2)c1 [Example 220, N-{3-[6-methyl-3-(thien-2-ylcarbonyl)pyrazolo[1,5-a]pyrimidin-7-yl]phenyl}nicotinamide] | – | IC50 [1]: 10 to 50 µM |
| CCCCNC(=O)Nc1cccc(-c2c(C)cnc3c(C(=O)c4cccs4)cnn23)c1 [Example 221, N-butyl-N′-{3-[6-methyl-3-(thien-2-ylcarbonyl)pyrazolo[1,5-a]pyrimidin-7-yl]phenyl}urea] | – | IC50 [1]: 10 to 50 µM |
| Cc1cnc2c(C(=O)c3cccs3)cnn2c1-c1cccc(NC(=O)NC(C)C)c1 [Example 222, N-isopropyl-N′-{3-[6-methyl-3-(thien-2-ylcarbonyl)pyrazolo[1,5-a]pyrimidin-7-yl]phenyl}urea] | – | IC50 [1]: 10 to 50 µM |
| O=C(c1cccs1)c1cnn2c(-c3cccc(C(F)(F)F)c3)ccnc12 [Example 223, [7-(3-Trifluoromethylphenyl)pyrazolo[1,5-a]-pyrimidin-3-yl}-2-thienyl-methanone] | 1 to 10 | – |
| O=C(c1cccs1)c1cnn2c(-c3cccc(F)c3)ccnc12 [Example 225, [7-(3-Fluorophenyl)pyrazolo[1,5-a]-pyrimidin-3-yl}-2-thienyl-methanone] | 10 to 50 | – |
| O=C(c1ccco1)c1cnn2c(-c3cccc(N4CCCCC4=O)c3)ccnc12 [Example 226, 1-[3-[3-(2-Furanylcarbonyl)pyrazolo-[1,5-a]pyrimidin-7-yl]phenyl}-2-piperidinone] | 10 to 50 | – |
| O=C(c1ccccc1)c1cnn2c(-c3cccc(N4CCCCC4=O)c3)ccnc12 [Example 227, 1-[3-(3-Benzoylpyrazolo[1,5-a]-pyrimidin-7-yl)phenyl]-2-piperidinone] | 10 to 50 | – |
| O=C(c1ccco1)c1cnn2c(-c3cccc(N4CCCC4=O)c3)ccnc12 [Example 228, 1-[3-[3-(2-Furanylcarbonyl)pyrazolo-[1,5-a]pyrimidin-7-yl]phenyl]-2-pyrrolidinone] | 10 to 50 | – |
| O=C(c1ccccc1)c1cnn2c(-c3cccc(N4CCCC4=O)c3)ccnc12 [Example 229, 1-[3-(3-Benzoylpyrazolo[1,5-a]-pyrimidin-7-yl)phenyl]-2-pyrrolidinone] | 10 to 50 | – |
| O=C(c1ccccc1)c1cnn2c(-c3cccc(NC(=O)C4CC4)c3)ccnc12 [Example 230, N-[3-(3-Benzoylpyrazolo-[1,5-a]pyrimidin-7-yl)phenyl]-cyclopropanecarboxamide] | 1 to 10 | – |
| CNc1cccc(-c2ccnc3c(C(=O)c4ccccc4)cnn23)c1 [Example 231, [7-[3-(Methylamino)phenyl]pyrazolo[1,5-a]-pyrimidin-3-yl}phenyl-methanone] | 10 to 50 | – |
| CN(C(=O)C1CCC1)c1cccc(-c2ccnc3c(C(=O)c4ccccc4)cnn23)c1 [Example 232, N-[3-(3-Benzoylpyrazolo-[1,5-a]pyrimidin-7-yl)phenyl]-N-methylcyclobutanecarboxamide] | 10 to 50 | – |
| CN(C(=O)C1CCC1)c1cccc(-c2ccnc3c(C(=O)c4ccco4)cnn23)c1 [Example 233, N-[3-[3-(2-Furanylcarbonyl)-pyrazolo[1,5-a]pyrimidin-7-yl]phenyl}-N-methyl-cyclobutanecarboxamide] | 10 to 50 | – |
| CN(C(=O)C1CCC1)c1cccc(-c2ccnc3c(C#N)cnn23)c1 [Example 234, N-[3-(3-Cyanopyrazolo[1,5-a]-pyrimidin-7-yl)phenyl]-N-methyl-cyclobutanecarboxamide] | 1 to 10 | – |
| CN(C(=O)C1CC1)c1cccc(-c2ccnc3c(C(=O)c4ccccc4)cnn23)c1 [Example 236, N-[3-(3-benzoylpyrazolo[1,5-a]-pyrimidin-7-yl)phenyl]-N-methyl-cyclopropanecarboxamide] | 10 to 50 | – |
| CCC(=O)N(C)c1cccc(-c2ccnc3c(C(=O)c4cccs4)cnn23)c1 [Example 237, N-Methyl-N-[3-[3-(2-thienylcarbonyl)-pyrazolo[1,5-a]pyrimidin-7-yl]phenyl}-propanamide] | – | IC50 [3]: 1 to 10 µM |
| CC(=O)N(C)c1cccc(-c2ccnc3c(C(=O)c4cccs4)cnn23)c1 [Example 238, N-Methyl-N-[3-[3-(2-thienylcarbonyl)-pyrazolo[1,5-a]pyrimidin-7-yl]phenyl}-acetamide] | – | IC50 [3]: 10 to 50 µM |
| CN(C(=O)O)c1cccc(-c2ccnc3c(C(=O)c4cccs4)cnn23)c1 [Example 239, Methyl [3-[3-(2-thienylcarbonyl)pyrazolo-[1,5-a]pyrimidin-7-yl]phenyl}-carbamic acid] | 1 to 10 | – |
| CCOC(=O)c1cnn2c(-c3cccc(NC(=O)C4CCC4)c3)ccnc12 [Example 240, Ethyl 7-[3-[(cyclobutylcarbonyl)amino]phenyl]-pyrazolo[1,5-a]pyrimidine-3-carboxylic acid] | – | IC50 [4]: 10 to 50 µM |

| SMILES | IC50 [2] [µM] | other results |
| --- | --- | --- |
| CC(C)C(=O)Nc1cccc(-c2ccnc3c(C(=O)c4ccco4)cnn23)c1 [Example 241, N-[3-[3-(2-Furanylcarbonyl)pyrazolo-[1,5-a]pyrimidin-7-yl]phenyl}-2-methyl-propanamide] | – | IC50 [3]: 1 to 10 µM |
| CC(C)(C)C(=O)Nc1cccc(-c2ccnc3c(C(=O)c4ccccc4)cnn23)c1 [Example 242, N-[3-(3-Benzoylpyrazolo[1,5-a]-pyrimidin-7-yl)phenyl]-2,2-dimethyl-propanamide] | – | IC50 [3]: 1 to 10 µM |
| CC(C)(C)C(=O)Nc1cccc(-c2ccnc3c(C(=O)c4ccco4)cnn23)c1 [Example 243, N-[3-[3-(2-Furanylcarbonyl)pyrazolo-[1,5-a]pyrimidin-7-yl]phenyl}-2,2-dimethyl-propanamide] | – | IC50 [3]: 1 to 10 µM |
| COc1ccc(-c2ccnc3c(C(=O)c4cccs4)cnn23)c(OC)c1 [Example 246, [7-(2,4-dimethoxyphenyl)pyrazolo[1,5-a]-pyrimidin-3-yl}-2-thienyl-methanone] | 10 to 50 | – |
| CC(=O)Nc1cccc(-c2ccnc3c(C(=O)c4cccs4)cnn23)c1 [Example 250, N-[3-[3-(2-Thienylcarbonyl)pyrazolo[1,5-a]pyrimidin-7-yl]phenyl}-acetamide] | – | IC50 [3]: 1 to 10 µM |
| CCC(=O)Nc1cccc(-c2ccnc3c(C(=O)c4cccs4)cnn23)c1 [Example 251, N-[3-[3-(2-Thienylcarbonyl)pyrazolo[1,5-a]pyrimidin-7-yl]phenyl}-propanamide] | – | IC50 [3]: < 1 µM |
| Cc1ccc(C(=O)c2cnn3c(-c4cccc(NC(=O)C5CC5)c4)ccnc23)s1 [Example 252, N-[3-[3-[(5-Methyl-2-thienyl)carbonyl]pyrazolo[1,5-a]pyrimidin-7-yl]phenyl}-cyclopropanecarboxamide] | 1 to 10 | – |
| CCN(C(=O)C1CC1)c1cccc(-c2ccnc3c(C(=O)c4ccccc4)cnn23)c1 [Example 253, N-[3-(3-Benzoylpyrazolo[1,5-a]pyrimidin-7-yl)phenyl]-N-ethyl-cyclopropanecarboxamide] | 10 to 50 | – |
| CCN(C(=O)C1CC1)c1cccc(-c2ccnc3ccnn23)c1 [Example 254, N-Ethyl-N-(3-pyrazolo[1,5-a]pyrimidin-7-ylphenyl)-cyclopropanecarboxamide] | 10 to 50 | – |
| CCN(C(=O)C1CC1)c1cccc(-c2ccnc3c(Cl)cnn23)c1 [Example 255, N-[3-(3-Chloropyrazolo[1,5-a]pyrimidin-7-yl)phenyl]-N-ethyl-cyclopropanecarboxamide] | 10 to 50 | – |
| CCN(C(=O)C1CC1)c1cccc(-c2ccnc3c(C#N)cnn23)c1 [Example 256, N-[3-(3-Cyanopyrazolo[1,5-a]pyrimidin-7-yl)phenyl]-N-ethyl-cyclopropanecarboxamide] | 10 to 50 | – |
| CCN(C(=O)C1CC1)c1cccc(-c2ccnc3c(C(=O)c4ccco4)cnn23)c1 [Example 257, N-Ethyl-N-[3-[3-(2-furanylcarbonyl)pyrazolo[1,5-a]pyrimidin-7-yl]phenyl}-cyclopropanecarboxamide] | 10 to 50 | – |
| C#CCN(C(=O)C1CC1)c1cccc(-c2ccnc3c(C(=O)OCC)cnn23)c1 [Example 258, Ethyl 7-[3-[(cyclopropylcarbonyl)-2-propynylamino]phenyl]-pyrazolo[1,5-a]pyrimidine-3-carboxylic acid] | – | IC50 [4]: 10 to 50 µM |
| C#CCN(C(=O)C1CC1)c1cccc(-c2ccnc3c(C(=O)c4cccs4)cnn23)c1 [Example 259, N-2-Propynyl-N-[3-[3-(2-thienylcarbonyl)pyrazolo[1,5-a]pyrimidin-7-yl]phenyl}-cyclopropanecarboxamide] | 1 to 10 | – |
| O=CNc1cccc(-c2ccnc3c(C(=O)c4cccs4)cnn23)c1 [Example 260, N-[3-[3-(2-Thienylcarbonyl)pyrazolo[1,5-a]pyrimidin-7-yl]phenyl}-formamide] | – | IC50 [3]: 1 to 10 µM |
| CN(C=O)c1cccc(-c2ccnc3c(C(=O)c4cccs4)cnn23)c1 [Example 261, Formamide, N-methyl-N-[3-[3-(2-thienylcarbonyl)pyrazolo[1,5-a]pyrimidin-7-yl]phenyl}] | – | IC50 [4]: 1 to 10 µM |
| CCOc1cccc(-c2ccnc3c(C(=O)c4cccs4)cnn23)c1 [Example 263, [7-(3-Ethoxyphenyl)pyrazolo[1,5-a]pyrimidin-3-yl]-2-thienyl-methanone] | 1 to 10 | – |
| COCCOc1cccc(-c2ccnc3c(C(=O)c4cccs4)cnn23)c1 [Example 264, [7-[3-(2-Methoxyethoxy)phenyl]pyrazolo[1,5-a]pyrimidin-3-yl]-2-thienyl-methanone] | 1 to 10 | – |
| O=C(c1cccs1)c1cnn2c(-c3cccc(OC4CCCC4)c3)ccnc12 [Example 265, [7-[3-(Cyclopentyloxy)phenyl]pyrazolo[1,5-a]pyrimidin-3-yl]-2-thienyl-methanone] | 1 to 10 | – |
| CNc1cccc(-c2ccnc3c(C(=O)c4cccs4)cnn23)c1 [Example 266, [7-[3-(Methylamino)phenyl]pyrazolo[1,5-a]pyrimidin-3-yl]-2-thienyl-methanone] | 1 to 10 | – |
